In ChEMBL document CHEMBL5352436, “Triterpenoid pyrazines and pyridines - Synthesis, cytotoxicity, mechanism of action, preparation of prodrugs” (Eur J Med Chem, 2022):

Columns and labels:
K562 = experiment: Cytotoxicity against human K562 cells assessed as reduction in cell viability incubated for 72 hrs by MTS assay; format: functional, cell-based; details: K562, 72 h
[1] = Cytotoxicity against human BJ cells assessed as reduction in cell viability incubated for 72 hrs by MTS assay; format: toxicity, cell-based
CCRF-CEM = experiment: Cytotoxicity against human CCRF-CEM cells assessed as reduction in cell viability incubated for 72 hrs by MTS assay; format: functional, cell-based
[2] = Cytotoxicity against human K562-Tax cells assessed as reduction in cell viability incubated for 72 hrs by MTS assay; format: functional, cell-based
A549 = experiment: Cytotoxicity against human A549 cells assessed as reduction in cell viability incubated for 72 hrs by MTS assay; format: functional, cell-based; details: A549, 72 h
U2OS = experiment: Cytotoxicity against human U2OS cells assessed as reduction in cell viability incubated for 72 hrs by MTS assay; format: functional, cell-based
CEM-DNR = experiment: Cytotoxicity against human CEM-DNR cells assessed as reduction in cell viability incubated for 72 hrs by MTS assay; format: functional, cell-based
[3] = Cytotoxicity against human HCT116-p53-null cells assessed as reduction in cell viability incubated for 72 hrs by MTS assay; format: functional, cell-based
[4] = Cytotoxicity against human MRC5 cells assessed as reduction in cell viability incubated for 72 hrs by MTS assay; format: toxicity, cell-based
HCT-116 = experiment: Cytotoxicity against human HCT-116 cells assessed as reduction in cell viability incubated for 72 hrs by MTS assay; format: functional, cell-based; details: HCT-116, 72 h

SMILES	IC50 (K562)	IC50 at 72 h [1]	IC50 (CCRF-CEM)	IC50 [2]	IC50 (A549)	IC50 (U2OS)	IC50 (CEM-DNR)	IC50 [3]	IC50 at 72 h [4]	IC50 (HCT-116)
CC1=CC[C@]2(C(=O)O)CC[C@]3(C)[C@H](CC[C@@H]4[C@@]5(C)Cc6nccnc6C(C)(C)[C@@H]5CC[C@]43C)[C@H]2[C@@H]1C	18 µM	> 50 µM	7.2 µM	10 µM	44 µM	46 µM	10 µM	50 µM	> 50 µM	48 µM
CC1(C)C=C2[C@H]3CC[C@@H]4[C@@]5(C)CCC(=O)C(C)(C)[C@@H]5CC[C@@]4(C)[C@]3(C)CC[C@@]2(C(=O)O)CC1 [MORONIC ACID]	> 50 µM	> 50 µM	17 µM	21 µM	47 µM	> 50 µM	17 µM	> 50 µM	> 50 µM	45 µM
Cc1oc(=O)oc1COC(=O)[C@]12CC[C@@H](C(C)C)[C@@H]1[C@H]1CC[C@@H]3[C@@]4(C)Cc5cccnc5C(C)(C)[C@@H]4CC[C@@]3(C)[C@]1(C)CC2	0.043 µM	> 50 µM	46 µM	> 50 µM	> 50 µM	> 50 µM	50 µM	> 50 µM	> 50 µM	> 50 µM
CC1(C)CC[C@]23CC[C@]4(C)[C@H](CC[C@@H]5[C@@]6(C)CCC(=O)C(C)(C)[C@@H]6CC[C@]54C)[C@H]2[C@H]1OC3	> 50 µM	> 50 µM	> 50 µM	> 50 µM	> 50 µM	> 50 µM	> 50 µM	> 50 µM	> 50 µM	> 50 µM
CC1=CC[C@]2(C(=O)O)CC[C@]3(C)[C@H](CC[C@@H]4[C@@]5(C)CCC(=O)C(C)(C)[C@@H]5CC[C@]43C)[C@H]2[C@@H]1C	8.5 µM	35 µM	6.5 µM	28 µM	24 µM	24 µM	11 µM	35 µM	33 µM	32 µM
